Experimental data from the supplement of paper PMC11451515.

System: NOMO1
Experiment: cell viability relative to DMSO control; higher = less cytotoxic
Conditions: 48 h
Summary of the method: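 Viability is a per-plate percentage relative to DMSO wells, with cell-free wells as background. CellTiter-Glo One luminescence was read after 48 h at 37°C on 1536-well plates (5 μl) of NOMO1 or SEM (500 cells/well) or P12-Ichikawa (1000 cells/well) leukemia cells. The cells had been adapted for at least four passages in each medium and pin-dosed with library compounds in DMSO from 47 μM to 0.79 nM in 11 threefold steps.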

[1] = HPLM + 10% dialyzed FBS, 0.000781 µM
[2] = HPLM + 10% dialyzed FBS, 0.00234 µM
[3] = HPLM + 10% dialyzed FBS, 0.00702 µM
[4] = HPLM + 10% dialyzed FBS, 0.0211 µM
[5] = HPLM + 10% dialyzed FBS, 0.0632 µM
[6] = HPLM + 10% dialyzed FBS, 0.19 µM
[7] = HPLM + 10% dialyzed FBS, 0.569 µM
[8] = HPLM + 10% dialyzed FBS, 1.71 µM
[9] = HPLM + 10% dialyzed FBS, 5.12 µM
[10] = HPLM + 10% dialyzed FBS, 15.4 µM
[11] = HPLM + 10% dialyzed FBS, 46.1 µM
[12] = RPMI 5 mM glucose + 10% FBS, 0.000781 µM
[13] = RPMI 5 mM glucose + 10% FBS, 0.00234 µM
[14] = RPMI 5 mM glucose + 10% FBS, 0.00702 µM
[15] = RPMI 5 mM glucose + 10% FBS, 0.0211 µM
[16] = RPMI 5 mM glucose + 10% FBS, 0.0632 µM
[17] = RPMI 5 mM glucose + 10% FBS, 0.19 µM
[18] = RPMI 5 mM glucose + 10% FBS, 0.569 µM
[19] = RPMI 5 mM glucose + 10% FBS, 1.71 µM
[20] = RPMI 5 mM glucose + 10% FBS, 5.12 µM
[21] = RPMI 5 mM glucose + 10% FBS, 15.4 µM
[22] = RPMI 5 mM glucose + 10% FBS, 46.1 µM
[23] = RPMI 5 mM glucose + 10% dialyzed FBS, 0.000781 µM
[24] = RPMI 5 mM glucose + 10% dialyzed FBS, 0.00234 µM
[25] = RPMI 5 mM glucose + 10% dialyzed FBS, 0.00702 µM
[26] = RPMI 5 mM glucose + 10% dialyzed FBS, 0.0211 µM
[27] = RPMI 5 mM glucose + 10% dialyzed FBS, 0.0632 µM
[28] = RPMI 5 mM glucose + 10% dialyzed FBS, 0.19 µM
[29] = RPMI 5 mM glucose + 10% dialyzed FBS, 0.569 µM
[30] = RPMI 5 mM glucose + 10% dialyzed FBS, 1.71 µM
[31] = RPMI 5 mM glucose + 10% dialyzed FBS, 5.12 µM
[32] = RPMI 5 mM glucose + 10% dialyzed FBS, 15.4 µM
[33] = RPMI 5 mM glucose + 10% dialyzed FBS, 46.1 µM

SMILES | cell viability [1] | cell viability [2] | cell viability [3] | cell viability [4] | cell viability [5] | cell viability [6] | cell viability [7] | cell viability [8] | cell viability [9] | cell viability [10] | cell viability [11] | cell viability [12] | cell viability [13] | cell viability [14] | cell viability [15] | cell viability [16] | cell viability [17] | cell viability [18] | cell viability [19] | cell viability [20] | cell viability [21] | cell viability [22] | cell viability [23] | cell viability [24] | cell viability [25] | cell viability [26] | cell viability [27] | cell viability [28] | cell viability [29] | cell viability [30] | cell viability [31] | cell viability [32] | cell viability [33]
CN1C(=O)\C(=C/C2=C1N=C(NC3CCOCC3)N=C2)OC4=C(F)C=C(F)C=C4 | 105% | 107% | 105% | 101% | 119% | 100% | 91% | 96.4% | 58.2% | 89.2% | 16.4% | 95.4% | 83.2% | 88.4% | 90.6% | 94.1% | 87.2% | 87.2% | 95.2% | 79.2% | 84% | 23.3% | 86.7% | 97.1% | 104% | 89.2% | 83.5% | 87.1% | 95.5% | 91.4% | 76.7% | 86.3% | 26.4%
Cc1ccc(C)c(OCCCC(C)(C)C(=O)O)c1 | 92.3% | 84.2% | 93% | 95.6% | 89.9% | 102% | 105% | 88.4% | 98.9% | 104% | 98.3% | 78.1% | 93.7% | 101% | 94.1% | 85.5% | 105% | 99.4% | 88.7% | 92.1% | 96.5% | 92.9% | 76.5% | 92% | 88.9% | 94.1% | 96.1% | 103% | 101% | 81.3% | 88.3% | 106% | 96.2%
CN(C)Cc1cccc(N/C(=C2\C(=O)Nc3cc(C(=O)N(C)C)ccc32)c2ccccc2)c1 | 99.3% | 105% | 112% | 112% | 91.1% | 118% | 110% | 97.9% | 74.8% | 58.2% | 28.8% | 100% | 105% | 101% | 105% | 103% | 107% | 95.2% | 92.4% | 84.6% | 68.5% | 55% | 95.7% | 88.9% | 95.9% | 96.4% | 107% | 99.6% | 112% | 112% | 81.2% | 73% | 61.6%
COc1ccc(CC2SC(=O)NC2=O)cc1C(=O)NCc1ccc(C(F)(F)F)cc1 (stereo unspecified) | 84.2% | 83.3% | 90.7% | 86.1% | 79.4% | 85.5% | 99.3% | 99.2% | 83% | 82.1% | 86.3% | 75.9% | 88.2% | 94% | 88% | 81.7% | 84.1% | 90.1% | 92% | 81.4% | 85.3% | 92% | 89.1% | 89.1% | 86.9% | 96% | 89% | 93.4% | 96.7% | 86.3% | 85.9% | 79.3% | 90.8%
NCC/1=C/NC(=S)N1[C@H]2CCC3=C(F)C=C(F)C=C3C2 |  |  |  |  |  |  |  |  |  |  |  | 106% | 108% | 105% | 102% | 112% | 103% | 124% | 106% | 101% | 105% | 79.4% |  |  |  |  |  |  |  |  |  |  | 
CC(=O)OCC(CCn1cnc2cnc(N)nc21)COC(C)=O | 80% | 105% | 89.9% | 98.4% | 102% | 113% | 102% | 120% | 112% | 103% | 101% | 91.7% | 101% | 92.8% | 93.1% | 93.9% | 106% | 98.9% | 108% | 104% | 94.2% | 92.7% | 92.4% | 91.3% | 104% | 93% | 89.9% | 112% | 100% | 101% | 99.9% | 108% | 90.3%
CN(C)c1ccccc1CN1CCCN(Cc2ccccc2N(C)C)C1c1ccncc1 | 93.7% | 103% | 91.6% | 29.8% | 113% | 115% | 108% | 110% | 99.9% | 95.7% | 65.7% | 86.4% | 82.7% | 89.2% | 18.6% | 89.4% | 88% | 91.1% | 81.3% | 83.5% | 89.7% | 74.5% | 77.3% | 88.7% | 90.6% | 33.3% | 93% | 99.6% | 93.7% | 97.7% | 95.4% | 95% | 65%
CC1(C)CCC(=C(\C1)C2=CC=C(Cl)C=C2)/CN3CCN(CC3)C4=CC(=C(C=C4)C(=O)N[S+]([O-])(=O)C5=CC=C(NCC6CCOCC6)C(=C5)[N+]([O-])=O)OC7=CN=C8[NH]C=CC8=C7 | 103% | 110% | 95.8% | 91.9% | 113% | 71.8% | 63.2% | 55.3% | 55.1% | 45.8% | 39% | 93.7% | 84.4% | 99.3% | 89.4% | 85.4% | 76.2% | 61.3% | 62.7% | 63.2% | 43% | 33.6% | 97% | 95% | 96.2% | 76.7% | 66.4% | 57.7% | 49% | 38.2% | 42.9% | 28% | 23.9%
CN1CCC(=C2c3ccccc3CCc3sccc32)CC1 | 88.8% | 107% | 111% | 101% | 126% | 118% | 103% | 104% | 121% | 103% | 44.5% | 106% | 109% | 104% | 106% | 125% | 105% | 114% | 107% | 102% | 108% | 109% | 100% | 108% | 113% | 112% | 112% | 110% | 116% | 108% | 106% | 106% | 65.7%
CCCC[N+]1(C)[C@@H]2CC(OC(=O)[C@H](CO)c3ccccc3)C[C@H]1[C@@H]1O[C@@H]12 (stereo partly specified) |  |  |  |  |  |  |  |  |  |  |  | 106% | 107% | 118% | 120% | 125% | 102% | 114% | 97.9% | 93.6% | 77.7% | 15.6% | 120% | 124% | 136% | 127% | 129% | 118% | 121% | 122% | 117% | 105% | 22.7%
CC=CC1=C(C(=O)O)N2C(=O)[C@@H](NC(=O)[C@H](N)c3ccc(O)cc3)[C@H]2SC1.O | 80.5% | 102% | 113% | 104% | 120% | 116% | 118% | 60.7% | 33.1% | 31.3% | 23.8% | 93.7% | 109% | 113% | 116% | 112% | 125% | 118% | 28.4% | 22.2% | 18.1% | 15.1% | 106% | 104% | 96% | 104% | 117% | 113% | 109% | 89.6% | 24.8% | 23.6% | 20%
Cc1cc(-c2ccc(CC(=O)Nc3ccc(-c4cccnc4)cc3)cc2)ccn1 |  |  |  |  |  |  |  |  |  |  |  | 108% | 118% | 108% | 111% | 107% | 110% | 116% | 96.4% | 84.6% | 54.3% | 40.9% | 119% | 131% | 124% | 110% | 134% | 103% | 106% | 110% | 91.8% | 55.8% | 41.7%
CN1CCN(c2cc(C(=O)Nc3ccc4c(c3)-c3c(c(C(N)=O)nn3-c3ccc(F)cc3)CC4)c(Cl)cn2)CC1 | 123% | 106% | 108% | 113% | 114% | 127% | 113% | 103% | 99.4% | 85.9% | 1.35% | 108% | 102% | 111% | 109% | 109% | 107% | 112% | 106% | 109% | 97.4% | 2.41% | 116% | 108% | 121% | 102% | 117% | 107% | 93.4% | 100% | 99.9% | 102% | 2.16%
C[C@@H](Oc1ccc2[nH]nc(/C=C/c3cnn(CCO)c3)c2c1)c1c(Cl)cncc1Cl | 99.5% | 102% | 98.9% | 93.9% | 99.9% | 89.7% | 86% | 86.4% | 70.9% | 38.4% | 41.3% | 94.6% | 108% | 89.2% | 86% | 80.9% | 83.6% | 89.3% | 76.3% | 74.2% | 40% | 33.9% | 82.9% | 92.3% | 89% | 85.2% | 92.8% | 99.1% | 87.4% | 73.5% | 80.9% | 40.9% | 34.9%
Clc1ccc(C(Cn2ccnc2)OCc2ccc(Sc3ccccc3)cc2)c(Cl)c1 (stereo unspecified) | 126% | 101% | 124% | 120% | 146% | 109% | 126% | 107% | 109% | 98.8% | 104% | 99.2% | 108% | 106% | 111% | 111% | 125% | 104% | 103% | 118% | 70.9% | 63.8% | 111% | 123% | 116% | 112% | 116% | 125% | 134% | 104% | 124% | 88.9% | 59.8%
